Data as given in patent US20050282743A1, “Molecular interactions in cells” (Arbor Vita Corporation, priority 2001, published 2005).
Each block holds one molecule with its values, some of them ahead of it. Ends that are not written are not given here. * marks the point of attachment. Biotin = O=C1N[C@H]2[C@H](CS[C@H]2CCCCC(=O)*)N1

What was measured:
Type in all cases: binding
[1] = target: T1, PDZ protein (GST-PDZ fusion) (Homo sapiens, UniProt Q14168); assay: G' assay (10 uM PL peptide), results of TABLE 7 and TABLE 12; settings: PDZ MPP2, PDZ Domain 1
T1 construct: made in house; host or cells: E. coli (DH5alpha, BL21 or JM109)
T1 sequence (Q14168 1-576): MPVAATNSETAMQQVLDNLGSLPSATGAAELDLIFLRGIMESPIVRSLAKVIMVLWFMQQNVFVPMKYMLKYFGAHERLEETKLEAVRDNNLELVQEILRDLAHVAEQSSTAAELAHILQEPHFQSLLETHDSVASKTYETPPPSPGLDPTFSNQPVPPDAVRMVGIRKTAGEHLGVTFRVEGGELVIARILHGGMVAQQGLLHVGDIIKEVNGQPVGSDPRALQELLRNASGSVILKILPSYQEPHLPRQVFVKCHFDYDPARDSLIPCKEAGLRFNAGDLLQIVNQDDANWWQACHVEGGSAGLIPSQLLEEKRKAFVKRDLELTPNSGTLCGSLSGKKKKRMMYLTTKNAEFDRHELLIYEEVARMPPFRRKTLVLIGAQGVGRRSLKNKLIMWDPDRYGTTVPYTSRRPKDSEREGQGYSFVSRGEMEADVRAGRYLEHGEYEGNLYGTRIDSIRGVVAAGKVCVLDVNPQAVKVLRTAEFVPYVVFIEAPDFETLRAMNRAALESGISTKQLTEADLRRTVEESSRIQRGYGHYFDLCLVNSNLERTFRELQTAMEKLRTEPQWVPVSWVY
Procedure, shortened: (§1)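 Biotinylated PL peptides at 10 uM (vs 20 uM in G^0 assay) bound to GST-PDZ fusions; PDZ protein at 5 ug/ml unless another concentration listed. Bound peptide read as A450 nm, classified 0–5 (0 = A450 0; 5 = A450 >4 repeated).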

[2] = target: T2, PDZ protein (GST-PDZ fusion) (Homo sapiens, UniProt Q9BXL6); assay: as above; settings: PDZ CARD14, PDZ Domain 1
T2 construct: made in house; host or cells: E. coli (DH5alpha, BL21 or JM109)
T2 sequence (Q9BXL6 1-1004): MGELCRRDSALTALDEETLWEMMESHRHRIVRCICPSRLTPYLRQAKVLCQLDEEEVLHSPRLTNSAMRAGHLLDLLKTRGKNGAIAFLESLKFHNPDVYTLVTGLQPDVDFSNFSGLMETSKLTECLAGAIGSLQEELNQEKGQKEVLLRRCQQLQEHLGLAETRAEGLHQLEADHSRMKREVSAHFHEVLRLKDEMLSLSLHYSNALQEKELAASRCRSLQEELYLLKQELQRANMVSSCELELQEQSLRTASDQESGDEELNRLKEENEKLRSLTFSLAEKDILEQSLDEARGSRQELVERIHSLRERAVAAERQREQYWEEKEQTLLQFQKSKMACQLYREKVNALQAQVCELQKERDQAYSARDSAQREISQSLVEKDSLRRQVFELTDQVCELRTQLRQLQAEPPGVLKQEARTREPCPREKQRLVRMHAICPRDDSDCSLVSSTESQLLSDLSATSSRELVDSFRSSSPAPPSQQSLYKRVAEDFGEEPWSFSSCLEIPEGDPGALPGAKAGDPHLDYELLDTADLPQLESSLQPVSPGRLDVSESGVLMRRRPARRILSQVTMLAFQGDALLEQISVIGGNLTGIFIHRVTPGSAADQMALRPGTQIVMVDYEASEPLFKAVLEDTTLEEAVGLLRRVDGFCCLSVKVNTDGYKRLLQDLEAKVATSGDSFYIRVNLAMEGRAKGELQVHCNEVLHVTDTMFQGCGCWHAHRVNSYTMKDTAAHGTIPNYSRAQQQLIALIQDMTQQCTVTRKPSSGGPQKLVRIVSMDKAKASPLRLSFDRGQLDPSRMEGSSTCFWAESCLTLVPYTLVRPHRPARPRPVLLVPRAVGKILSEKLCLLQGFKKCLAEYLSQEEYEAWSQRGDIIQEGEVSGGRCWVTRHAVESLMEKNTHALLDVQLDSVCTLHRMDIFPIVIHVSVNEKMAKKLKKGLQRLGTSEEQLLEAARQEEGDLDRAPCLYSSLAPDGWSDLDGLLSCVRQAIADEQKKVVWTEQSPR
Procedure, shortened: as §1

[3] = tested on: PDZ protein (GST-PDZ fusion); assay: as above; settings: PDZ HEMBA 1003117, PDZ Domain 1
Procedure, shortened: as §1

[4] = target: T3, PTPL-1 (4/5) : Presenilin 2 (117L) (Homo sapiens, UniProt Q12923, G1797A); assay: G assay with FDA approved drug (Example 7, TABLE 10B); settings: OD in absence of drug 1.4; drug concentration per TABLE 11; read after 30 minutes
T3 construct: made in house; host or cells: E. coli (DH5α, BL21 or JM109)
Experimental: (§2) For certain of the PDZ proteins and PL proteins shown to bind together and for which Kd values had been obtained, additional testing was conducted to determine whether certain pharmaceutical compounds would act to antagonize or agonize the interactions. Assays were conducted as for the G′ assay described supra both in the presence and absence of test compound, except that 50 ul of a 10 uM solution of the biotinylated PL peptide is allowed to react with the surface bearing the PDZ-domain polypeptide instead of a 20 uM solution as specified in step (2) of the assay.
(§3) In both tables, the first column (left to right) entitled “PDZ domain” lists the gene name of GST-PDZ domain fusion (see TABLE 9). Entries having two numbers separated by a slash indicate which PDZ domain was utilized. For example, in TABLE 10A, the entry for ZO-3 is 1/3. This means that PDZ domain 1 of 3 was used.
(§4) The second column labeled “PL” indicates the name of the PDZ ligand (see TABLES 10A and 10B) interacting with the PDZ domain. The third column entitled “Drug” lists the common or trade name of pharmaceutical compound tested and found to modulate the specific PDZ-PL interaction (suppliers and chemical information are listed in TABLE 11). The final column with the heading “Change in OD” indicates the change in absorbance at 450 nm of the assay in the absence (first number) or presence (second number) of chemical compound.
(§5) Many FDA approved drugs have unknown mechanism of function. It is quite possible that some of these drugs function by disrupting or increasing PDZ/PL interactions. This possibility was examined by using the ‘G Assay’ (Example 3 section D). FDA approved drugs were incubated in the presence of the labeled peptide and compared to the same interaction without drug to determine if there was an effect on specific PDZ:PL interactions (drugs added with peptide at step 9 in Example 3D). The primary focus of this experiment was on drugs involved in treatment of depression (amitriptyline, desipramine, trimipramine, benztropine, and nortryptilline) and epilepsy (valproic acid). No modes of action are known for these drugs.
(§6) Therapeutic dose was determined by guidelines given in the Physician's Desk Reference and in the assay, 200 times this amount was used. If a dosage range was given, the upper end of the range was used. Each interaction listed in TABLES 10A & B was tested in the ‘G Assay’ (see Example 3) against each of the drugs listed in TABLE 11. The concentration of GST-fusion protein and peptide used in the assay represent the Kd and were determined by titration. These values can be found in TABLE 7. The drugs were added to the peptide before addition to the well containing the PDZ protein. Otherwise, the assay was carried out as described and read at 450 nm after 30 minutes of developing. For the sequences of the PDZs and PLs used in these tests, see TABLES 8 & 9.
(§7) List of interactions and therapeutics for which a modulation of binding was observed. Concentrations at which the GST-PDZ fusion protein and labeled peptide were used can be found in Table 7 or Table 12.

[5] = target: T4, Hemba 1003117 : Presenilin 2 (117L) (Homo sapiens, UniProt Q96JH8); assay: as above; settings: OD in absence of drug 1.2; drug concentration per TABLE 11; read after 30 minutes
T4 construct: made in house; host or cells: E. coli (DH5α, BL21 or JM109)
Experimental: as §2, §3, §4, §5, §6, §7

[6] = target: T5, Par 3 3/3 : Presenilin 2 (117L) (Homo sapiens, UniProt Q8TEW0); assay: G assay with FDA approved drug (Example 7, TABLES 10A, 10B); settings: OD in absence of drug 0.6; drug concentration per TABLE 11; read after 30 minutes
T5 construct: made in house; host or cells: E. coli (DH5alpha, BL21 or JM109)
Experimental: as §2, §3, §4, §5
as §6, with “For the sequences of the PDZs and PLs used in these tests, see TABLES 8 & 9.” left out

[7] = target: T6, Mupp-1 7/13 : Presenilin 2 (117L) (Homo sapiens, UniProt O75970); assay: as above; settings: OD in absence of drug 0.5; drug concentration per TABLE 11; read after 30 minutes
T6 construct: Entries having two numbers separated by a slash indicate which PDZ domain was utilized; made in house; host or cells: E. coli (DH5alpha, BL21 or JM109)
Experimental: as §2, §3, §4, §5
as §6, with “For the sequences of the PDZs and PLs used in these tests, see TABLES 8 & 9.” left out

ZO-1 2/3 : NET (258L) = target: T7, ZO-1 2/3 : NET (258L) (Homo sapiens, UniProt Q07157, DEL264-264); assay: G assay with FDA approved drug (Example 7, TABLE 10B); settings: OD in absence of drug 0.8; drug concentration per TABLE 11; read after 30 minutes
T7 construct: made in house; host or cells: E. coli (DH5α, BL21 or JM109)
Experimental: as §2, §3, §4, §5, §6, §7

T3 sequence (Q12923 1782-1879 G1797A): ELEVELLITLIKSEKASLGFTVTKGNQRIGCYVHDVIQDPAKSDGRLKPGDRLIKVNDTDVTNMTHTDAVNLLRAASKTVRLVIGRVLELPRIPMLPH
T5 sequence (Q8TEW0 579-681): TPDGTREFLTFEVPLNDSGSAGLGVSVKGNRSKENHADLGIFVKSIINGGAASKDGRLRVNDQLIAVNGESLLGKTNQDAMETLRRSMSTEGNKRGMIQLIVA
T7 sequence (Q07157 with tags, fused parts or gaps DEL264-264): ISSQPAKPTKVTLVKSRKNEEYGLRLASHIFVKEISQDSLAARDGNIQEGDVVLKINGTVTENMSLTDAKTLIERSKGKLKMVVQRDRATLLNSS
T4 sequence (Q96JH8 969-1068): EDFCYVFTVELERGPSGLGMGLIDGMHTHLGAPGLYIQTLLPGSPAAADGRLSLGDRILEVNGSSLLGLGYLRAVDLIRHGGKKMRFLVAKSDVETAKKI
T6 sequence (O75970 with tags, fused parts or gaps): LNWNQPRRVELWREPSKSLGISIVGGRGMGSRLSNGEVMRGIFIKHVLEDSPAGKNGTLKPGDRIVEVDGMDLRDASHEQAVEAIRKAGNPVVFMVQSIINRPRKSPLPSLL

Classification [1]: 2 (A450 nm 1-2)
Classification [2]: 2 (A450 nm 1-2)
Molecule: 5-HT 3A (serotonin receptor 3A) (Biotin-LAVLAYSITLVMLWSIWQYA)
Classification [3]: 2 (A450 nm 1-2)

CHANGE IN OD: absorbance at 450 nm in presence of drug [4]: 1.4 to 1.1
CHANGE IN OD: absorbance at 450 nm in presence of drug [5]: 1.2 to 0.8
Change in OD: absorbance at 450 nm in presence of drug [6]: 0.6 to 0.2
Change in OD: absorbance at 450 nm in presence of drug [7]: 0.5 to 0.2
Molecule: CCCC(CCC)C(=O)O [Valproic Acid, VALPROIC ACID]

CHANGE IN OD: absorbance at 450 nm in presence of drug (ZO-1 2/3 : NET (258L)): 0.8 to 0.4
Molecule: CN(C)CCCN1c2ccccc2CCc2ccccc21 [Imipramine, Imipramine HCI]
